Test systems include HOP-92 NSCLC; HCC-2998 colon; MOLT-4 leukemia; HCT-116 colon; CCRF-CEM leukemia; HT29 colon; NCI-H226 lung; HL-60(TB) leukemia; OVCAR-3 ovarian; MDA-N.
What all share (experiment): DTP human tumour cell line panel, 48 h

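The compound was tested at five concentrations on cells cultured in 96-well plates, with a 48-hour exposure period. Abbreviation: GI50, concentration required for 50% inhibition of growth. TGI: concentration producing complete growth inhibition.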

Take `CSc1ncc2c(n1)-c1ccccc1OC2NC(C)(C)C` (centres undefined): the TGI is > 100 µM in the test on HOP-92 NSCLC; 87 µM with HCC-2998 colon; > 100 µM in the test on MOLT-4 leukemia; > 100 µM in the test on HCT-116 colon; > 100 µM with CCRF-CEM leukemia; > 100 µM with HT29 colon. In addition, the total growth inhibition concentration (TGI) in the test on NCI-H226 lung, with HL-60(TB) leukemia and with OVCAR-3 ovarian was > 100 µM throughout.
`O=S(=O)(O)c1cc(O)c2c(O)c(N=Nc3cccc4ccccc34)c(S(=O)(=O)O)cc2c1`: the concentration for total growth inhibition (TGI) with HOP-92 NSCLC, in the test on MDA-N, in the test with MOLT-4 leukemia, with HCT-116 colon, with HT29 colon and in the test on NCI-H226 lung was > 100 µM in each case. Further, the TGI in the test on OVCAR-3 ovarian is > 100 µM.
Turning to `Cc1ccc(S(=O)(=O)c2ccc([N+](=O)[O-])o2)cc1`, the concentration for total growth inhibition (TGI) with HOP-92 NSCLC is 4.32 µM; with HCC-2998 colon, 13.1 µM; in the test on MOLT-4 leukemia, > 100 µM; in the test on HCT-116 colon, 3.94 µM; in the test on CCRF-CEM leukemia, 1.21 µM; with HT29 colon, 3.2 µM. Moreover, the TGI in the test with NCI-H226 lung is 31.5 µM; in the test on OVCAR-3 ovarian, 3.71 µM.
Turning to `COc1cc(OC)c2c(O)c(S(=O)(=O)c3ccc(C)cc3)c(=O)oc2c1`, the TGI in the test with HOP-92 NSCLC, in the test on HCC-2998 colon, with MOLT-4 leukemia, in the test on HCT-116 colon, with CCRF-CEM leukemia and in the test on HT29 colon was > 100 µM each time. Further, the TGI with NCI-H226 lung, with HL-60(TB) leukemia and with OVCAR-3 ovarian was > 100 µM in each case.
For `COc1cc2c(cc1C)NC(=O)/C2=C\c1ccncc1`, the concentration for total growth inhibition (TGI) with HOP-92 NSCLC was > 100 µM; with HCC-2998 colon it was 30 µM; in the test on HCT-116 colon, 5.09 µM; with CCRF-CEM leukemia, > 100 µM; with HT29 colon, > 100 µM; in the test on HL-60(TB) leukemia it was > 100 µM. In addition, the TGI in the test with OVCAR-3 ovarian is 10.3 µM.
As to `Nc1ccc(-c2nc3ccc(F)cc3s2)cc1`, the concentration for total growth inhibition (TGI) in the test with HOP-92 NSCLC is > 100 µM; in the test on MDA-N, > 100 µM; in the test with HCC-2998 colon, 45.3 µM; in the test with MOLT-4 leukemia it was > 100 µM; in the test on HCT-116 colon, > 100 µM; with CCRF-CEM leukemia, > 100 µM. Besides, the TGI was > 100 µM in the test with HT29 colon, > 100 µM in the test on NCI-H226 lung and 64.4 µM in the test on OVCAR-3 ovarian. For the same compound, the GI50 with HCC-2998 colon is 17.8 µM; with NCI-H226 lung, 47 µM.
Regarding `O/N=C1/C2CC3CC1(c1ccccc1)CC(/C3=N/O)/C2=N\O` (centres undefined), the TGI with MDA-N, in the test on HCC-2998 colon, in the test with MOLT-4 leukemia, with HCT-116 colon, in the test on CCRF-CEM leukemia and with HT29 colon was > 100 µM throughout. Besides, the TGI in the test on NCI-H226 lung, in the test on HL-60(TB) leukemia and with OVCAR-3 ovarian was > 100 µM in each case.
Regarding `CC(C)C(C/C=C1/CC(CO)(COC(=O)C2CCCCC2)OC1=O)C(C)C` (centres undefined), the total growth inhibition concentration (TGI) in the test on HOP-92 NSCLC was found to be 29.8 µM; with MDA-N, 38.8 µM; in the test with HCC-2998 colon, 59.8 µM; in the test on MOLT-4 leukemia, 94.8 µM; in the test with HCT-116 colon, 33.9 µM; in the test with CCRF-CEM leukemia, 63.2 µM. Moreover, the TGI in the test on HT29 colon was found to be 75.4 µM; in the test with NCI-H226 lung, 48.6 µM; in the test with OVCAR-3 ovarian it was 34.5 µM.
On to `O=C1CCC2(O)C3Cc4ccc(Oc5nnnn5-c5ccccc5)c5c4C2(CCN3CC2CC2)C1O5` (centres undefined), for which the concentration for total growth inhibition (TGI) was > 100 µM in the test with HOP-92 NSCLC; 51 µM in the test with MDA-N; > 100 µM in the test with MOLT-4 leukemia; > 100 µM with HCT-116 colon; 47.4 µM in the test on CCRF-CEM leukemia; 68.8 µM with HT29 colon. Also, the TGI in the test with OVCAR-3 ovarian is > 100 µM.
On to `C/C=C/[C@H]1O[C@@](O)([C@@H](C)[C@H](O)[C@H](C)[C@H]2OC(=O)/C(OC)=C/C(C)=C/[C@@H](C)[C@@H](O)[C@@H](CC)[C@@H](O)[C@H](C)C/C(C)=C/C=C/[C@@H]2OC)C[C@H](OC2CC(O)C(OC(N)=O)C(C)O2)[C@@H]1C` (some centres undefined), for which the concentration for total growth inhibition (TGI) is 2.4 µM with HOP-92 NSCLC; 18.6 µM in the test with HCC-2998 colon; 14 µM with HCT-116 colon; 0.723 µM in the test on CCRF-CEM leukemia; 1.59 µM in the test with HT29 colon; 17.2 µM with OVCAR-3 ovarian.
Turning to `CSCCCNC(=O)c1csc(-c2csc(CCNC(=O)CNC(=O)CNC(=O)CNC(=O)OC(C)(C)C)n2)n1`, the TGI in the test on HOP-92 NSCLC, with MDA-N, in the test on HCC-2998 colon, in the test on MOLT-4 leukemia, in the test with HCT-116 colon and in the test on CCRF-CEM leukemia was > 100 µM in each case. For the same compound, the TGI in the test on HT29 colon, with NCI-H226 lung and in the test with OVCAR-3 ovarian was > 100 µM in each case.
On to `C=C(Br)CNCC(=C)Br`, for which the TGI with MDA-N, in the test with HCC-2998 colon, with MOLT-4 leukemia, with HCT-116 colon, in the test with CCRF-CEM leukemia and in the test on HT29 colon was > 100 µM in each case. Further, the TGI in the test on NCI-H226 lung, in the test with HL-60(TB) leukemia and in the test on OVCAR-3 ovarian was > 100 µM throughout.
For the compound `Cc1ccnc(NC(=S)Nc2cccc(Cl)c2)c1`, the TGI in the test with MOLT-4 leukemia, in the test on HCT-116 colon, in the test with CCRF-CEM leukemia, in the test with HT29 colon, in the test on HL-60(TB) leukemia and with OVCAR-3 ovarian was > 100 µM throughout.
Regarding `COc1cc(OC)cc(-n2c(N)c(-c3nc4ccccc4n3C)c3ccc([N+](=O)[O-])cc3c2=O)c1`, the concentration for total growth inhibition (TGI) in the test on HOP-92 NSCLC is 68 µM; in the test on MDA-N it was > 100 µM; in the test with HCC-2998 colon it was > 100 µM; with HCT-116 colon it was > 100 µM; in the test on HT29 colon it was > 100 µM; in the test on NCI-H226 lung, > 100 µM.
For `N#Cc1c(Nc2nc3ccccc3s2)c2ccccc2n2c1nc1ccccc12`, the TGI in the test with HOP-92 NSCLC, in the test with MDA-N, in the test with HCC-2998 colon, in the test on MOLT-4 leukemia, in the test on HCT-116 colon and in the test with HT29 colon was > 100 µM throughout. The total growth inhibition concentration (TGI) in the test on HL-60(TB) leukemia and with OVCAR-3 ovarian was > 100 µM throughout.
As to `CCOC(=O)c1c(N2CCOCC2)[nH]c(=O)c(C(c2cccs2)c2c(O)c(C(=O)OCC)c(N3CCOCC3)[nH]c2=O)c1O`, the TGI with HOP-92 NSCLC, in the test on MDA-N, with HCC-2998 colon, in the test with MOLT-4 leukemia, in the test on HCT-116 colon and with CCRF-CEM leukemia was > 100 µM in each case. Moreover, the TGI in the test with HT29 colon, in the test on NCI-H226 lung and in the test on OVCAR-3 ovarian was > 100 µM throughout.

The TGI is the concentration giving total growth inhibition. One may read the GI50 as the concentration that inhibits growth by half.

These data come from PubChem BioAssay (NCI).
